From patent publication US20230242936A1, “DUAL PROMOTER SYSTEMS” (Seattle Children's Hospital (dba Seattle Children's …, priority 2020, published 2023)

System: CA-STAT5aER
Assay: Logic gate system with CA-STAT5aER payload, target reporter gene expression
Type: cell-based
Conditions: host cells co-cultured with CD19+ cells and treated with tamoxifen
Method: A logic gate system similar to the system depicted in FIG. 9 and FIG. 10 are examined. Dual promoter nucleic acids are prepared and introduced into host cells. The nucleic acids include an inducible iSynPro promoter and either a constitutively activated signal transducer and activator of transcription 5a (CA-STAT5a) protein (FIG. 9), a fusion protein of CA-STAT5a and of an estrogen receptor (CA-STAT5aER) (FIG. 10), or an alternative fusion protein of CA-STAT5a and of an estrogen receptor (CA-STAT5bER). Host cells are stimulated with Raji cells (CD19+), or PMA/ionomycin and are analyzed by FACS analysis for GFP and EGFRt expression.

With `CC/C(=C(\c1ccccc1)c1ccc(OCCN(C)C)cc1)c1ccccc1` [tamoxifen, 2-(4((1Z)-1,2-diphenyl-1-butenyl)phenoxy)-N,N-dimethyl-ethanamine] the “target reporter gene expression” value was “express target reporter gene”.
